Earlier results, collected in patent publication US9072314B2, “Carotenoid-containing compositions and methods” (Mead Johnson Nutrition Company, priority 2007, dated 2015).

Tests used:
[1] = system: H. pylori strains; conditions: strains in Japanese children, cited study

Structure (SMILES) | H. pylori strains tested that were resistant [1] [%] | antioxidant capacity relative to Vitamin E (versus Vitamin E) | antioxidant capacity relative to beta-carotene (versus beta-carotene) [times]
CC[C@H]1OC(=O)[C@H](C)[C@@H](O[C@H]2C[C@@](C)(OC)[C@@H](O)[C@H](C)O2)[C@H](C)[C@@H](O[C@@H]2O[C@H](C)C[C@H](N(C)C)[C@H]2O)[C@](C)(OC)C[C@@H](C)C(=O)[C@H](C)[C@@H](O)[C@]1(C)O [clarithromycin] | 29 |  | 
CC1=C(/C=C/C(C)=C/C=C/C(C)=C/C=C/C=C(C)/C=C/C=C(C)/C=C/C2=C(C)C(=O)C(O)CC2(C)C)C(C)(C)CC(O)C1=O (stereo not shown) [Astaxanthin, astaxanthin] |  | 100-500 times | 10
Cc1ncc([N+](=O)[O-])n1CCO [metronidazole] | 24 |  | 
